Source: patent publication US20220402883A1, “COMPOUNDS AND METHODS FOR MODULATING RNA FUNCTION” (Arrakis Therapeutics, Inc., priority 2016, published 2022)
Structures can show the parent of a compound that is named as a salt.

Tests used:
[1] = test system: 17CAG and 41CAG RNA (httmRNA); assay: Ligand observed NMR binding assay for CAG repeat RNA; conditions: 3 μM RNA, 200 μM compound, 288 K
Method: Following the above procedure, various tool and test compounds were assayed for binding. In a first series of experiments, compounds were tested for binding to 17CAG or 41CAG (sample was 3 μM in RNA). […] However, several of the compounds did show significant changes in their signals in the presence of the two RNA target species.
Purpose: Test direct binding of compounds for httmRNA (construct with 41 CAG repeats 474 nt) and others as described below. Ligand observed NMR assay to test direct binding of fragments to RNA target (e.g. construct with 41 CAG repeats 474 nt). Single compound hits were identified for further characterization by orthogonal assay (e.g. surface plasmon resonance, SPR). Ligand observed assay was used for primary screen and deconvolution into single fragment hits. Established experiments were eventually used for group epitope mapping.
This assay tests for direct binding of compounds to httmRNA and may be adapted for other repeat RNAs. Compounds are tested in pools (i.e. pool size of 12 fragments in each sample in the primary screen and smaller pool sizes during deconvolution and eventually single compound measurements).
Sample buffer: 10 mM Tris-HCl, pH 8.0, 0.78 g [MW: 157.56 g/mol]; 75 mM KCl, 2.79 g [MW: 74.55 g/mol]; 3 mM MgCl2, 0.14 g [MW: 95.21 g/mol]; fill up to 500 mL with Millipore H2O.
Dried RNA pellet is solubilized in sample buffer 10 mM Tris-HCl pH 8.0, 75 mM KCl, 3 mM MgCl2. RNA aliquot at 13.9 μM (stock concentration) is denatured at 95° C. for 3 min and snap-cooled on ice for 3 min, and refolded at 37° C. for 30 min.
Final concentrations in the sample: 200 μM each fragment and 3 μM RNA target molecule.
Sample is placed into magnet and temperature adjusted to 288 K. Spectrometer frequency at 600 MHz is matched and tuned. Magnetic field is shimmed to homogenize magnetic field around the sample.
Sequence of experiments includes a Proton 1D experiment with a Watergate sequence for water suppression, a WaterLOGSY (WLOGSY) and a 1D Saturation transfer difference (STD) experiment to test for direct binding of the compounds to the RNA.
Details for 1D Watergate experiment: For each 1D WATERGATE spectrum a total of 8192 complex points in f1 (^1H) with 128 scans were acquired (experiment time 4 min.). The spectral width was set to 16.66 ppm.
Details WLOGSY experiment: For the WLOGSY-spectrum, a total of 1024 complex points in f1 (^1H) with 256 scans were acquired (experiment time 25 min.). The carrier frequency for ^1H was set at the water resonance (˜4.7 ppm). The spectral width was set to 16.66 ppm in the direct dimension (^1H).
Details STD experiment: For the STD-spectrum, a total of 1024 complex points in f1 (^1H) with 1024 scans were acquired (experiment time 65 min.). The carrier frequency for ^1H was set at the water resonance (˜4.7 ppm). The spectral width was set to 16.66 ppm in the direct dimension (^1H). For the on-resonance experiments saturation is set to 2.0 sec at a saturation frequency of −2500 Hz. For the off-resonance experiment saturation frequency is set at 10200 Hz.
Python scripts were used to process all recorded spectra in the assay setup, screening and deconvolution process. Spectra were analyzed for direct binding signals of the compounds. Identified single compound hits were reported.

41CAG RNA (476 nt) = assay: NMR competition experiments (WaterLOGSY); type: binding; conditions: 100 μM compound, 2.5 μM RNA
Method: Competition experiments were also performed. Test Sample: 2.5 μM 41CAG RNA (476 nt) was combined with the following: 100 μM HP-AC008002-E01 (A); +/−200-400 μM HP-AC008001-E02 (B); and +/−200-400 μM HP-AT005003-C03 (C). ^1H 1D Watergate & WaterLOGSY spectra recorded of HP-AC008002-E01 are used as a reference.
In a further experiment, as Test Sample 2.5 μM 41CAG RNA (476 nt) was used in the presence of: 100 μM HP-AC008001-E02 (B) or 100 μM HP-AT005003-C03 (C); +/−200-400 μM HP-AC008002-E01 (A). ^1H 1D Watergate and WaterLOGSY spectra recorded single cmpds were used as a reference.
In a further experiment, as Test Sample: 2.5 μM 41CAG RNA (476 nt) was used in the presence of: 100 μM HP-AC008001-E02 (B)+/−200-400 μM HP-AT005003-C03 (C). ^1H 1D Watergate & WaterLOGSY spectra recorded of single cmpd HP-AC008001-E02 were used as a reference.

[2] = test system: RNA3WJ_1.0.0_5IB_3FAM (cis 3WJ with one unpaired nucleotide); assay: Thermal shift binding assay; conditions: RNA:ligand ratios 1:1, 1:3
Excerpt: (§1) Purpose: Test binding of compounds for RNA three way junction (for example, a construct of 38 nt). Thermal shift assay based on established fluorescence quenching assay utilizing FAM as fluorescence tag and Iowa Black as quencher. Tags were attached at the 3′ and 5′ end, respectively. Stable formation of 3WJ upon compound binding would lead to quenching of the FAM fluorescence due to close proximity of the Iowa Black tag. Thermal unfolding leads to increase of fluorescence emission. Assay readout: FAM (465-510 nm) Thermal Shift.
(§2) Assay sample buffer used: 10 mM CacoK pH 7.2, 30 mM NaCl. Buffer preparation in Dnase/Rnase Free distilled water (Gibco Life Technologies).
(§3) Dilute the RNA 1:10 (final 10 μM) in Assay Buffer.
(§4) Heat up the diluted RNA up to 90° C. for 5 min (sealed Eppendorf Tube).
(§5) Cool down the RNA probe slowly to RT.
(§6) Dilute the compounds to 800 μM in DMSO (Assay: 8 μM).
Final concentrations in the sample: 1 μM RNA, 8 μM compound, 1% DMSO
(§7) Pipet 20 μL Sample Solution into Roche, Light Cycler480 Multiwell Plate96, white, REF 04729692001.
(§8) Measure the 96 plate with the LightCycler480 (Channel: 480/510 nm; Temperature: 41-91° C.).
(§9) Analyse measurement-data with the MeltingCurveGenotyping Mode.
(§10) Settings: Acquisition mode: continuous; Ramp rate: 0.1° C./sec; Acquisition: 6° C.
(§11) Curves are fitted with raw and normalized data.
(§12) Melting curves analysis show melting temperature (Tm) of ˜51° C. Range of RNA concentrations was tested and assay window was determined (conc. range of 0.5-1 μM yields best results). The choice of buffer also affected the Tm. RNA constructs were tested under different buffer conditions (especially in presence of salt) in the thermal shift assay. […] CacoK with 30 mM salt at 1 μM RNA conc. was used to assess compound effects on 3WJ stability. […] These conditions were used for screening test compounds.
Compounds Ark0000013 and Ark0000014 were also tested in the thermal shift assay against three RNA 3WJ constructs, A) RNA3WJ_1.0.0_5IB_3FAM (cis 3WJ with one unpaired nucleotide); B) Split3WJ.1_up_5IB+Split3WJ.1_down_3FAM (trans 3WJ as 1:1 mix); and C) Split3WJ.2_up_5IB+Split3WJ.2_down_3FAM (trans 3WJ as 1:1 mix).

RNA3WJ_3.0.0_5IB_3FAM = assay: Thermal shift binding assay; conditions: RNA:ligand ratios 1:1, 1:3
Excerpt: as §1, §2, §3, §4, §5
(§13) Dilute the compounds to 800 μM in DMSO (Assay: 8 μM). […]
as §7, §8, §9, §10, §11, §12

[3] = test system: RNA3WJ_0.0.0_5IB_3FAM (3WJ_0.0.0_5IB_3FAM RNA construct); assay: Thermal shift binding assay; conditions: for Melt. Temp. with cmpd / Shift melt. Temp.: RNA sequence 3WJ_0.0.0_5IB_FAM; for Melt. Temp. with cmpd: melting temperature in presence of compound; for Shift melt. Temp.: with cmpd minus without cmpd
Excerpt: as §1, §2, §3, §4, §5, §13, §7, §8, §9, §10, §11, §12

[4] = test system: 3WJ_0.0.0_5IB_3FAM RNA construct; assay: Fluorescence quenching binding assay (FAM / Iowa Black); conditions: concentration dependent; effect at conc. >5 μM
Method: This assay will be used to test binding of compounds for RNA three way junction (such as a 38 nt construct). This is a fluorescence quenching assay utilizing FAM as fluorescence tag and Iowa Black as quencher. Tags are attached at the 3′ and 5′ end, respectively. Stable formation of MW upon compound binding would lead to quenching of the FAM fluorescence due to close proximity of the Iowa Black tag. Assay readout: FAM (485-520 nm) Fluorescence Intensity.
as §2, §3, §4, §5, §6
Final concentrations in the sample: 1-10 μM RNA, 8 μM compound, 1% DMSO
Pipet 25 μL Sample Solution into Greiner cat #784076, black, 384
Measure the 96 plate with the LightCycler480 (Channel: 485/520 nm).
Calibration of the expected fluorescence signal at various RNA concentrations in either CacoK or NaPO4 buffers was performed first. Experiments in buffers containing salt show distinct fluorescence quenching behavior. […]
First, two compounds (i.e. Ark000007 & Ark000008) were tested in the fluorescence quenching assay to assess concentration dependent influence on the fluorescence signal.

[5] = competitor HP-AC008002-E01 200-400 μM (up to 1:4)
[6] = 1 μM RNA, 8 μM compound, 10 mM CacoK pH 7.2, 30 mM NaCl

SMILES | STD signal [1] | Melt. Temp. with cmpd [3] | Shift melt. Temp. [3] | further results
NCc1ccc2ccccc2n1 [HP-AC008004-C07] | weak | – | – | –
Cc1nn(-c2ccccc2)nc1CN [HP-AC008001-E02] | distinct | – | – | WaterLOGSY signals in the presence of competitor (41CAG RNA (476 nt); [5]): still observed; WaterLOGSY signals in the presence of competitor (41CAG RNA (476 nt); competitor HP-AT005003-C03 200-400 μM (up to 1:4)): still observed
CN(CCCN)CCCNC(=O)c1ccccc1 [Ark000039] | – | 60.3 °C | −1.2 °C | effect in the melting curves (raw and normalized data) [2]: lack of effect; effect in the melting curves (raw and normalized data) (RNA3WJ_3.0.0_5IB_3FAM): lack of effect; effect in the melting curves (raw and normalized data) ([3]; RNA:ligand ratios 1:1, 1:3): no significant effect
CC(O)CNCc1ccc(-c2ccccc2)o1 (stereo not shown) [HP-AT005003-C03] | distinct | – | – | WaterLOGSY signals in the presence of competitor (41CAG RNA (476 nt); [5]): still observed
O=C(c1ccc(Cl)cc1)N1CCN(c2ccc([N+](=O)[O-])c3ncccc23)CC1 [CPNQ, reference compound] | distinct | – | – | –
[N-]=[N+]=NC[C@H]1O[C@H](O[C@@H]2[C@@H](O)[C@H](O[C@H]3O[C@H](CN)[C@@H](O)[C@H](O)[C@H]3O)[C@@H](N)C[C@H]2N)[C@H](O)[C@@H](N)[C@@H]1O [Ark000007, 6″-Azido-Kanamycin a Hydrochloride Salt] | – | 65.6 °C | +4.4 °C | fluorescence quenching effect (FAM fluorescence signal) [4]: increase of quenching effect; Melting temp + cmpd [3, 6]: 65.6 °C; Temp. Shift [3, 6]: ~5 °C
C#CCCCC(=O)NC[C@H]1O[C@H](O[C@H]2[C@H](O)[C@@H](O[C@H]3O[C@H](CO)[C@@H](O)[C@H](N)[C@H]3O)[C@H](N)C[C@@H]2N)[C@H](O)[C@@H](O)[C@@H]1O [Ark000008] | – | 61.8 °C | +0.6 °C | fluorescence quenching effect (FAM fluorescence signal) [4]: Only Ark000007 showed an increase of quenching effect; effect on melting temperature (in words) ([3]; 1 μM RNA, 8 μM compound): only a very small effect
OCc1cccc(-c2cccnc2)c1 [HP-AC008002-E01] | distinct | – | – | WaterLOGSY signals in the presence of competitor (41CAG RNA (476 nt); competitor HP-AC008001-E02 or HP-AT005003-C03 200-400 μM (up to 1:4)): still observed
CN(CCOCCN(C)C(=O)[C@@H]1C[C@H](N=[N+]=[N-])CN1C(=O)COc1ccc2c(=O)oc(=O)n(C)c2c1)C(=O)CCC12c3cc(NC(=O)CCCCCCCN)ccc3C(c3ccc(NC(=O)CCCCCCCN)cc31)c1ccc(NC(=O)CCCCCCCN)cc12 [ARK000024, N,N′,N″-(9-(3-((2-(2-((2S,4S)-4-azido-N-methyl-1-(2-((1-methyl-2,4-dioxo-1,4-dihydro-2H-benzo[d][1,3]oxazin-7-yl)oxy)acetyl)pyrrolidine-2-carboxamido)ethoxy)ethyl)(methyl)amino)-3-oxopropyl)-9,10-dihydro-9,10-[1,2]benzenoanthracene-2,7,15-triyl)tris(8-aminooctanamide)] | – | 60.7 °C | +0.3 °C | –
